Test results as given in patent US20100267561A1, “HERBICIDAL PYRIDAZINONE DERIVATIVES” (priority 2007, published 2010).

Tests used:
Format in all cases: in vivo
rice (Oryza sativa) = assay: Test B flooded paddy test plant response
Method in brief: (§1)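 Compounds were added directly to paddy water over 2-leaf-stage plants in pots flooded 3 cm above soil, water depth maintained. Visual injury scored against controls after 13 to 15 days in greenhouse, 0 (none) to 100 (complete control); dash indicates no result.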

[1] = system: barnyardgrass (Echinochloa crus-galli); assay: Test B flooded paddy test plant response
Method in brief: as §1

[2] = system: ducksalad (Heteranthera limosa); assay: Test B flooded paddy test plant response
Method in brief: as §1

[3] = system: umbrella sedge (Cyperus difformis); assay: Test B flooded paddy test plant response
Method in brief: as §1

wild oat (Avena fatua) = assay: Test B pre-/postemergence plant response
Method in brief: (§2)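 Seeds were sown and sprayed preemergence, while plants at 2 to 18 cm (1- to 4-leaf stage) got postemergence sprays. Compounds were formulated in a non-phytotoxic solvent mixture with surfactant. After 13 to 15 days in a greenhouse, injury was rated visually against untreated controls, 0 (no effect) to 100 (complete control).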

[4] = system: downy bromegrass (Bromus tectorum); assay: Test B pre-/postemergence plant response; settings: for Bromegrass, Downy plant response rating: 8 g ai/ha
Method in brief: as §2

[5] = system: velvetleaf (Abutilon theophrasti); assay: Test B pre-/postemergence plant response
Method in brief: as §2

[6] = system: surinam grass (Brachiaria decumbens); assay: Test B pre-/postemergence plant response
Method in brief: as §2

[7] = system: large crabgrass (Digitaria sanguinalis); assay: Test B pre-/postemergence plant response
Method in brief: as §2

corn (Zea mays) = assay: Test B pre-/postemergence plant response
Method in brief: as §2

[8] = system: morningglory (Ipomoea coccinea); assay: Test B pre-/postemergence plant response
Method in brief: as §2

[9] = system: common (oilseed) sunflower (Helianthus annuus); assay: Test B pre-/postemergence plant response; settings: Preemergence; for Sunflower plant response rating: scale 0 to 100
Method in brief: as §2

[10] = system: green foxtail (Setaria viridis); assay: Test B pre-/postemergence plant response
Method in brief: as §2

[11] = system: wheat (Triticum aestivum); assay: Test B pre-/postemergence plant response
Method in brief: as §2

[12] = Flood (flooded paddy test), 62 g ai/ha, scale 0 to 100, 0 no effect, 100 complete control
[13] = Flood (flooded paddy test), 125 g ai/ha, scale 0 to 100, 0 no effect, 100 complete control
[14] = Flood (flooded paddy test), 250 g ai/ha, scale 0 to 100, 0 no effect, 100 complete control
[15] = Flood, 31 g ai/ha, scale 0 to 100
[16] = 8 g ai/ha, postemergence, 0-100 scale
[17] = 16 g ai/ha, postemergence, 0-100 scale
[18] = Postemergence, 31 g ai/ha, scale 0 to 100
[19] = Postemergence, 62 g ai/ha, scale 0 to 100, 0 no effect, 100 complete control
[20] = Preemergence, 31 g ai/ha, scale 0 to 100 (0 no effect, 100 complete control)
[21] = Preemergence, 62 g ai/ha, 0 to 100 scale, 0 no effect, 100 complete control
[22] = Preemergence, 8 g ai/ha, scale 0 to 100
[23] = Preemergence, 16 g ai/ha, scale 0 to 100
[24] = Postemergence, 16 g ai/ha, scale 0 to 100

In the case of `CCc1cc(-c2ccc(C(F)(F)F)cc2)nn1-c1c(O)cnn(CC)c1=O` [Compound 67], the “Plant response rating, Rice” value (rice (Oryza sativa); [12]) is reported as 0, the “Plant response rating, Rice” value (rice (Oryza sativa); [13]) is reported as 0 and the “Plant response rating, Rice” value (rice (Oryza sativa); [14]) is reported as 15. The “Plant response rating, Rice” value (rice (Oryza sativa); [15]) was 0, the “Plant response rating, Barnyardgrass” value [1, 12] was 25 and the “Plant response rating, Barnyardgrass” value [1, 13] was 35. For the same molecule, the “Plant response rating, Barnyardgrass” value [1, 14] was 50, the “Plant response rating, Barnyardgrass” value [1, 15] was 0 and the “Plant response rating, Ducksalad” value [2, 12] was 0. For the same molecule, the “Plant response rating, Ducksalad” value [2, 13] was 0, the “Plant response rating, Ducksalad” value [2, 14] was 75 and the “Plant response rating, Ducksalad” value [2, 15] was 0. For the same molecule, the “Plant response rating, Sedge, Umbrella” value [3, 12] was 0, the “Plant response rating, Sedge, Umbrella” value [3, 13] was 0 and the “Plant response rating, Sedge, Umbrella” value [3, 14] was 0. The “Plant response rating, Sedge, Umbrella” value [3, 15] was 0, the “Oat, Wild plant response rating” value (wild oat (Avena fatua); [16]) was 100 and the “Oat, Wild plant response rating” value (wild oat (Avena fatua); [17]) was 100. The “Plant response rating, Oat, Wild” value (wild oat (Avena fatua); [18]) was 100, the “Plant response rating, Oat, Wild” value (wild oat (Avena fatua); [19]) was 100 and the “Plant response rating, Oat, Wild” value (wild oat (Avena fatua); [20]) was 95. The “Plant response rating, Oat, Wild” value (wild oat (Avena fatua); [21]) was 100, the “Oat, Wild plant response rating” value (wild oat (Avena fatua); [22]) was 90 and the “Oat, Wild plant response rating” value (wild oat (Avena fatua); [23]) was 95. For the same molecule, the “Bromegrass, Downy plant response rating” value ([4]; postemergence, 0-100 scale) was 55, the “Plant response rating, Bromegrass, Downy” value [4, 24] was 80 and the “Plant response rating, Bromegrass, Downy” value [4, 18] was 80. For the same molecule, the “Plant response rating, Bromegrass, Downy” value [4, 19] was 100, the “Plant response rating, Bromegrass, Downy” value ([4]; Preemergence, 16 g ai/ha, scale 0 to 100 (0 no effect, 100 complete control)) was 90 and the “Plant response rating, Bromegrass, Downy” value [4, 20] was 100. The “Plant response rating, Bromegrass, Downy” value [4, 21] was 100, the “Bromegrass, Downy plant response rating” value ([4]; Preemergence, scale 0 to 100) was 50 and the “Velvetleaf plant response rating” value [5, 16] was 0. For the same molecule, the “Velvetleaf plant response rating” value [5, 17] was 0, the “Plant response rating, Velvetleaf” value [5, 18] was 0 and the “Plant response rating, Velvetleaf” value [5, 19] was 0. The “Plant response rating, Velvetleaf” value [5, 20] was 0, the “Plant response rating, Velvetleaf” value [5, 21] was 0 and the “Velvetleaf plant response rating” value [5, 22] was 0. The “Velvetleaf plant response rating” value [5, 23] was 0, the “Surinam Grass plant response rating” value [6, 16] was 70 and the “Surinam Grass plant response rating” value [6, 17] was 85. The “Plant response rating, Surinam Grass” value [6, 18] was 100, the “Plant response rating, Surinam Grass” value [6, 19] was 100 and the “Plant response rating, Surinam Grass” value [6, 20] was 0. The “Plant response rating, Surinam Grass” value [6, 21] was 55, the “Surinam Grass plant response rating” value [6, 22] was 0 and the “Surinam Grass plant response rating” value [6, 23] was 0. The “Crabgrass, Large plant response rating” value [7, 16] was 70, the “Plant response rating, Crabgrass, Large” value [7, 24] was 98 and the “Plant response rating, Crabgrass, Large” value [7, 18] was 100. For the same molecule, the “Plant response rating, Crabgrass, Large” value [7, 19] was 100, the “Plant response rating, Crabgrass, Large” value [7, 20] was 0 and the “Plant response rating, Crabgrass, Large” value [7, 21] was 0. For the same molecule, the “Crabgrass, Large plant response rating” value [7, 22] was 0, the “Crabgrass, Large plant response rating” value [7, 23] was 0 and the “Corn plant response rating” value (corn (Zea mays); [16]) was 75. For the same molecule, the “Plant response rating, Corn” value (corn (Zea mays); [24]) was 90, the “Plant response rating, Corn” value (corn (Zea mays); [18]) was 100 and the “Plant response rating, Corn” value (corn (Zea mays); [19]) was 100. The “Plant response rating, Corn” value (corn (Zea mays); [20]) was 100, the “Plant response rating, Corn” value (corn (Zea mays); [21]) was 100 and the “Corn plant response rating” value (corn (Zea mays); [22]) was 60. The “Corn plant response rating” value (corn (Zea mays); [23]) was 98, the “Morningglory plant response rating” value [8, 16] was 0 and the “Morningglory plant response rating” value [8, 17] was 0. The “Plant response rating, Morningglory” value [8, 18] was 0, the “Plant response rating, Morningglory” value [8, 19] was 0 and the “Plant response rating, Morningglory” value [8, 20] was 0. The “Plant response rating, Morningglory” value [8, 21] was 0, the “Morningglory plant response rating” value [8, 22] was 0 and the “Morningglory plant response rating” value [8, 23] was 0. The “Plant response rating, Sunflower” value ([9]; 31 g ai/ha, scale 0 to 100 (0 no effect, 100 complete control)) was 0, the “Plant response rating, Sunflower” value ([9]; 62 g ai/ha, 0 to 100 scale, 0 no effect, 100 complete control) was 0 and the “Sunflower plant response rating” value ([9]; 8 g ai/ha) was 0. The “Sunflower plant response rating” value ([9]; 16 g ai/ha) was 0, the “Foxtail, Green plant response rating” value [10, 16] was 65 and the “Plant response rating, Foxtail, Green” value [10, 24] was 70. The “Plant response rating, Foxtail, Green” value [10, 18] was 98, the “Plant response rating, Foxtail, Green” value [10, 19] was 100 and the “Plant response rating, Foxtail, Green” value [10, 20] was 100. The “Plant response rating, Foxtail, Green” value [10, 21] was 100, the “Foxtail, Green plant response rating” value [10, 22] was 100 and the “Foxtail, Green plant response rating” value [10, 23] was 100. The “Wheat plant response rating” value [11, 16] was 95, the “Wheat plant response rating” value [11, 17] was 100 and the “Plant response rating, Wheat” value [11, 18] was 100. For the same molecule, the “Plant response rating, Wheat” value [11, 19] was 100, the “Plant response rating, Wheat” value [11, 20] was 100 and the “Plant response rating, Wheat” value [11, 21] was 100. The “Wheat plant response rating” value [11, 23] was 70.
